# Results: patent US9241961B2, “Medicinal product for treating gastrointestinal ulcers” (BIOCEDEX, priority 2009, dated 2016)
# Experiments:
# [1] = tested on: gastric ibuprofen-induced ulcer; experiment: model of gastric ibuprofen-induced ulcer in the rat; format: in vivo; settings: ibuprofen alone 100 mg/kg/d oral for 6 days, male Wistar rat
# Experimental: The inventors determined the anti-ulcer effect of Saccharomyces boulardii in the model of gastric ibuprofen-induced ulcer in the rat according to the protocol of Abraham et al. (2005) Dig Dis Sci 50:1 632-1 640. Male Wistar rats obtained from Janvier weighing between 200 and 220 grams are used after acclimatization for at least 7 days in the animal house (temp.=22 ±2° C.; humidity: 50±20%; food SAFE “A04”; nyctohemeral cycle: 12 hours of light and 12 hours of darkness). On D1, the rat receives the test product or the solvent by the oral route. Then, 1 hour later, the rat receives ibuprofen at 100 mg/kg by the oral route, or the solvent for the control group. The rats receive these treatments for 6 consecutive days. The animals go without food for 14-16 hours before the last administration of ibuprofen, but have access to drink. They are placed individually in a metal cage, the floor of which is a grating, to prevent coprophagia. On D6 the rat is sacrificed. […] Macroscopic evaluation of the gastric lesions is carried out as follows: • the stomach is spread out on a cork support with pins; • the number of ulcers on each stomach is counted; • the ulcerated area (mm^2) of haemorrhagic lesions is measured with a grid of squares (×10) and a stereo-microscope (Leica Wild M8) by measuring the length (mm) and width (mm) of each ulceration. […]
# [2] = development of body weight of the rats during 6-day oral treatment; format: in vivo; settings: Sb 0.3-1.0-3.0 g/kg/d and/or ibuprofen 100 mg/kg/d, 6 days, rat
# Experimental: Male Wistar rats obtained from Janvier weighing between 200 and 220 grams are used after acclimatization for at least 7 days in the animal house (temp.=22 ±2° C.; humidity: 50±20%; food SAFE “A04”; nyctohemeral cycle: 12 hours of light and 12 hours of darkness).
# On D1, the rat receives the test product or the solvent by the oral route. Then, 1 hour later, the rat receives ibuprofen at 100 mg/kg by the oral route, or the solvent for the control group. The rats receive these treatments for 6 consecutive days.
compound,measurement,setting,value
CC(C)Cc1ccc(C(C)C(=O)O)cc1 (stereo not drawn) [ibuprofen],number of ulcers,"[1]; gastric mucosa, recorded on day 6",6.60±1.06 ulcers
same,total area of ulceration,[1]; measured on day 6,9.40±1.72 mm^2
same,development of body weight relative to the untreated group,[2],do not alter the development of body weight
